How the values were obtained:
ABUTH (Velvetleaf) = test: Postemergence herbicidal evaluation; format: in vivo, Abutilon theophrasti; conditions: for ABUTH herbicidal rating: postemergence
Procedure, shortened: (§1)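 Rate range approx. 0.0156–0.500 kg/ha. Foliar application at 40 psi to ~2-week seedlings; surfactant 0.5% TWEEN 20 in 50/50 acetone/water. Evaluation 4–5 wk post-treatment by 0–9 visual injury score, means of replicate tests.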

[1] = tested on: CHEAL (Lambsquarters, Common); test: Postemergence herbicidal evaluation; format: in vivo, Chenopodium album; conditions: for CHEAL herbicidal rating: postemergence
Procedure, shortened: as §1

ZEAMX (Corn, Field) = test: Postemergence herbicidal evaluation; format: in vivo, Zea mays; conditions: for ZEAMX herbicidal rating: postemergence
Procedure, shortened: as §1

GALAP (Galium) = test: Preemergence herbicidal evaluation; format: in vivo, Galium aparine; conditions: rated 4-5 weeks after treatment
Procedure, shortened: (§2)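 Rating at 4–5 wk post-spray on a 0–9 visual scale vs control. Application: aqueous acetone, ~0.0156–0.500 kg/ha, to soil surface after seeding, preemergence.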

[2] = tested on: TRZAWR (Wheat, Winter, cv Riband); test: Postemergence herbicidal evaluation; format: in vivo, Triticum aestivum; conditions: for TRZAWR herbicidal rating: postemergence
Procedure, shortened: as §1

[3] = tested on: SAGPY (Arrowhead (Pygmaea)); test: Postemergence weed control under flooded paddy conditions; format: in vivo, Sagittaria pygmaea; conditions: postemergence weeds
Procedure, shortened: (§3)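 Containers holding 3–5 cm weeds and rice at 1.5–2.5 leaves are flooded to 1.5–3 cm above soil. Compound in 50/50 v/v aqueous/acetone is then added directly to the water, about 0.0313–0.500 kg/ha. Plants are kept in the greenhouse and rated 0–9 visually at 3–4 weeks.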

CYPIR (Rice Flatsedge) = test: Preemergence weed control under flooded paddy conditions; format: in vivo, Cyperus iria; conditions: rated 3-4 weeks after treatment
Procedure, shortened: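 Flooded-pot preemergence screen with silt loam and seeds in the upper 0.5 cm. Dose about 0.0313 to 0.500 kg/ha, delivered into flood water; visual 0-9 score after 3 to 4 weeks.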

ORYSAT (Rice, Tebonnet) = test: Postemergence herbicidal evaluation; format: in vivo, Oryza sativa, (L.) Tebonnet; conditions: for ORYSAT herbicidal rating: postemergence
Procedure, shortened: as §1

SETVI (Foxtail, Green) [4] = test: Preemergence herbicidal evaluation; format: in vivo, Setaria viridis; conditions: rated 4-5 weeks after treatment
Procedure, shortened: as §2

SETVI (Foxtail, Green) [5] = test: Postemergence herbicidal evaluation; format: in vivo, Setaria viridis; conditions: for SETVI herbicidal rating: postemergence
Procedure, shortened: as §1

AMBEL (Ragweed, Common) = test: Preemergence herbicidal evaluation; format: in vivo, Ambrosia artemisifolia; conditions: rated 4-5 weeks after treatment
Procedure, shortened: as §2

CYPSE (Flatsedge) = test: Postemergence weed control under flooded paddy conditions; format: in vivo, Cyperus serotinus; conditions: postemergence weeds
Procedure, shortened: as §3

[6] = tested on: ECHORC (Watergrass (Calif.)); test: as above; format: in vivo, Echinochloa oryzoides; conditions: postemergence weeds
Procedure, shortened: as §3

[7] = tested on: GLXMAW (Soybean, Williams); test: Postemergence herbicidal evaluation; format: in vivo, Glycine max, (L.) Merr. cv Williams; conditions: for GLXMAW herbicidal rating: postemergence
Procedure, shortened: as §1

[8] = rate 0.0313 kg/ha, 3-4 weeks after treatment
[9] = rate 0.0625 kg/ha, 3-4 weeks after treatment
[10] = rate 0.1250 kg/ha, 3-4 weeks after treatment
[11] = rate 0.2500 kg/ha, 3-4 weeks after treatment
[12] = Rate 0.0313 kg/ha, rated 3 to 4 weeks after treatment
[13] = Rate 0.0625 kg/ha, rated 3 to 4 weeks after treatment
[14] = Rate 0.1250 kg/ha, rated 3 to 4 weeks after treatment
[15] = Rate 0.2500 kg/ha, rated 3 to 4 weeks after treatment

CCOC(=O)CN1CC(=O)N(CC(=O)OCC)C1=Nc1cc(-n2c(=O)cc(C(F)(F)F)n(C)c2=O)c(F)cc1Cl [Compound 34, 2-{{2-Chloro-5-[3,6-dihydro-3-methyl-2,6-dioxo-4-(trifluoromethyl)-1(2H)-pyrimidinyl]-4-fluoro-phenyl}imino}-4-oxo-1,3-imidazolidinediacetic acid, diethyl ester]
Postemergence herbicidal rating ABUTH (ABUTH (Velvetleaf); Rate 0.0158 kg/ha): 9.0 | Postemergence herbicidal rating ABUTH (ABUTH (Velvetleaf); Rate 0.0315 kg/ha): 9.0 | Postemergence herbicidal rating ABUTH (ABUTH (Velvetleaf); Rate 0.0630 kg/ha): 9.0 | Postemergence herbicidal rating CHEAL ([1]; Rate 0.0158 kg/ha): 7.0 | Postemergence herbicidal rating CHEAL ([1]; Rate 0.0315 kg/ha): 9.0 | Postemergence herbicidal rating CHEAL ([1]; Rate 0.0630 kg/ha): 9.0 | Postemergence herbicidal rating ZEAMX (ZEAMX (Corn, Field); Rate 0.0158 kg/ha): 5.5 | Postemergence herbicidal rating ZEAMX (ZEAMX (Corn, Field); Rate 0.0315 kg/ha): 6.5 | Postemergence herbicidal rating ZEAMX (ZEAMX (Corn, Field); Rate 0.0630 kg/ha): 7.0 | Preemergence herbicidal rating GALAP (GALAP (Galium); rate 0.0313 kg/ha): 0.0 | Preemergence herbicidal rating GALAP (GALAP (Galium); rate 0.0625 kg/ha): 7.0 | Preemergence herbicidal rating GALAP (GALAP (Galium); rate 0.1250 kg/ha): 7.0 | Preemergence herbicidal rating GALAP (GALAP (Galium); rate 0.2500 kg/ha): 9.0 | Postemergence herbicidal rating TRZAWR ([2]; Rate 0.0158 kg/ha): 4.0 | Postemergence herbicidal rating TRZAWR ([2]; Rate 0.0315 kg/ha): 4.0 | Postemergence herbicidal rating TRZAWR ([2]; Rate 0.0630 kg/ha): 5.0 | Herbicidal rating SAGPY [3, 8]: 0.0 | Herbicidal rating SAGPY [3, 9]: 0.0 | Herbicidal rating SAGPY [3, 10]: 0.0 | Herbicidal rating SAGPY [3, 11]: 0.0 | Herbicidal rating CYPIR (CYPIR (Rice Flatsedge); 0.0313 kg/ha): 0.0 | Herbicidal rating CYPIR (CYPIR (Rice Flatsedge); 0.0625 kg/ha): 0.0 | Herbicidal rating CYPIR (CYPIR (Rice Flatsedge); 0.1250 kg/ha): 0.0 | Herbicidal rating CYPIR (CYPIR (Rice Flatsedge); 0.2500 kg/ha): 0.0 | Postemergence herbicidal rating ORYSAT (ORYSAT (Rice, Tebonnet); Rate 0.0158 kg/ha): 1.0 | Postemergence herbicidal rating ORYSAT (ORYSAT (Rice, Tebonnet); Rate 0.0315 kg/ha): 2.0 | Postemergence herbicidal rating ORYSAT (ORYSAT (Rice, Tebonnet); Rate 0.0630 kg/ha): 3.5 | Preemergence herbicidal rating SETVI (SETVI (Foxtail, Green) [4]; rate 0.0313 kg/ha): 3.0 | Preemergence herbicidal rating SETVI (SETVI (Foxtail, Green) [4]; rate 0.0625 kg/ha): 9.0 | Preemergence herbicidal rating SETVI (SETVI (Foxtail, Green) [4]; rate 0.1250 kg/ha): 9.0 | Preemergence herbicidal rating SETVI (SETVI (Foxtail, Green) [4]; rate 0.2500 kg/ha): 9.0 | Postemergence herbicidal rating SETVI (SETVI (Foxtail, Green) [5]; Rate 0.0158 kg/ha): 0.0 | Postemergence herbicidal rating SETVI (SETVI (Foxtail, Green) [5]; Rate 0.0315 kg/ha): 4.0 | Postemergence herbicidal rating SETVI (SETVI (Foxtail, Green) [5]; Rate 0.0630 kg/ha): 9.0 | Preemergence herbicidal rating AMBEL (AMBEL (Ragweed, Common); rate 0.0313 kg/ha): 0.0 | Preemergence herbicidal rating AMBEL (AMBEL (Ragweed, Common); rate 0.0625 kg/ha): 4.0 | Preemergence herbicidal rating AMBEL (AMBEL (Ragweed, Common); rate 0.1250 kg/ha): 4.0 | Preemergence herbicidal rating AMBEL (AMBEL (Ragweed, Common); rate 0.2500 kg/ha): 7.0 | Herbicidal rating CYPSE (CYPSE (Flatsedge); [8]): 0.0 | Herbicidal rating CYPSE (CYPSE (Flatsedge); [9]): 0.0 | Herbicidal rating CYPSE (CYPSE (Flatsedge); [10]): 0.0 | Herbicidal rating CYPSE (CYPSE (Flatsedge); [11]): 0.0 | Herbicidal rating ECHORC [6, 8]: 3.0 | Herbicidal rating ECHORC [6, 9]: 4.0 | Herbicidal rating ECHORC [6, 10]: 4.0 | Herbicidal rating ECHORC [6, 11]: 9.0 | Postemergence herbicidal rating GLXMAW ([7]; Rate 0.0158 kg/ha): 7.0 | Postemergence herbicidal rating GLXMAW ([7]; Rate 0.0315 kg/ha): 7.0 | Postemergence herbicidal rating GLXMAW ([7]; Rate 0.0630 kg/ha): 7.0

CCOC(=O)CN1C(=O)C(CC(=O)Nc2ccccc2)SC1=Nc1cc(-n2c(=O)cc(C(F)(F)F)n(C)c2=O)c(F)cc1Cl (centres unmarked) [Compound 68, Ethyl 2-{{2-chloro-5-[3,6-dihydro-3-methyl-2,6-dioxo-4-(trifluoromethyl)-1(2H)-pyrimidinyl]-4-fluorophenyl}imino}-4-oxo-5-[(phenylcarbamoyl)-methyl]-3-thiazolidineacetate]
ABUTH herbicidal rating (ABUTH (Velvetleaf); rate 0.0158 kg/ha): 7.0 | ABUTH herbicidal rating (ABUTH (Velvetleaf); rate 0.0315 kg/ha): 9.0 | ABUTH herbicidal rating (ABUTH (Velvetleaf); rate 0.0630 kg/ha): 7.0 | CHEAL herbicidal rating ([1]; rate 0.0158 kg/ha): 4.0 | CHEAL herbicidal rating ([1]; rate 0.0315 kg/ha): 7.0 | CHEAL herbicidal rating ([1]; rate 0.0630 kg/ha): 7.0 | ZEAMX herbicidal rating (ZEAMX (Corn, Field); rate 0.0158 kg/ha): 5.0 | ZEAMX herbicidal rating (ZEAMX (Corn, Field); rate 0.0315 kg/ha): 5.0 | ZEAMX herbicidal rating (ZEAMX (Corn, Field); rate 0.0630 kg/ha): 5.5 | Preemergence herbicidal rating GALAP (GALAP (Galium); rate 0.0156 kg/ha): 0.0 | Preemergence herbicidal rating GALAP (GALAP (Galium); rate 0.0313 kg/ha): 0.0 | Preemergence herbicidal rating GALAP (GALAP (Galium); rate 0.0625 kg/ha): 0.0 | Preemergence herbicidal rating GALAP (GALAP (Galium); rate 0.1250 kg/ha): 0.0 | Preemergence herbicidal rating GALAP (GALAP (Galium); rate 0.2500 kg/ha): 0.0 | TRZAWR herbicidal rating ([2]; rate 0.0158 kg/ha): 3.0 | TRZAWR herbicidal rating ([2]; rate 0.0315 kg/ha): 3.5 | TRZAWR herbicidal rating ([2]; rate 0.0630 kg/ha): 4.0 | Herbicidal rating SAGPY [3, 12]: 0.0 | Herbicidal rating SAGPY [3, 13]: 0.0 | Herbicidal rating SAGPY [3, 14]: 0.0 | Herbicidal rating SAGPY [3, 15]: 3.0 | CYPIR herbicidal effect rating (CYPIR (Rice Flatsedge); 0.0313 kg/ha): 0.0 | CYPIR herbicidal effect rating (CYPIR (Rice Flatsedge); 0.0625 kg/ha): 0.0 | CYPIR herbicidal effect rating (CYPIR (Rice Flatsedge); 0.1250 kg/ha): 5.0 | CYPIR herbicidal effect rating (CYPIR (Rice Flatsedge); 0.2500 kg/ha): 8.0 | ORYSAT herbicidal rating (ORYSAT (Rice, Tebonnet); rate 0.0158 kg/ha): 3.0 | ORYSAT herbicidal rating (ORYSAT (Rice, Tebonnet); rate 0.0315 kg/ha): 3.5 | ORYSAT herbicidal rating (ORYSAT (Rice, Tebonnet); rate 0.0630 kg/ha): 4.0 | Preemergence herbicidal rating SETVI (SETVI (Foxtail, Green) [4]; rate 0.0156 kg/ha): 0.0 | Preemergence herbicidal rating SETVI (SETVI (Foxtail, Green) [4]; rate 0.0313 kg/ha): 0.0 | Preemergence herbicidal rating SETVI (SETVI (Foxtail, Green) [4]; rate 0.0625 kg/ha): 0.0 | Preemergence herbicidal rating SETVI (SETVI (Foxtail, Green) [4]; rate 0.1250 kg/ha): 0.0 | Preemergence herbicidal rating SETVI (SETVI (Foxtail, Green) [4]; rate 0.2500 kg/ha): 2.0 | SETVI herbicidal rating (SETVI (Foxtail, Green) [5]; rate 0.0158 kg/ha): 2.0 | SETVI herbicidal rating (SETVI (Foxtail, Green) [5]; rate 0.0315 kg/ha): 6.0 | SETVI herbicidal rating (SETVI (Foxtail, Green) [5]; rate 0.0630 kg/ha): 6.0 | Preemergence herbicidal rating AMBEL (AMBEL (Ragweed, Common); rate 0.0156 kg/ha): 0.0 | Preemergence herbicidal rating AMBEL (AMBEL (Ragweed, Common); rate 0.0313 kg/ha): 0.0 | Preemergence herbicidal rating AMBEL (AMBEL (Ragweed, Common); rate 0.0625 kg/ha): 0.0 | Preemergence herbicidal rating AMBEL (AMBEL (Ragweed, Common); rate 0.1250 kg/ha): 1.0 | Preemergence herbicidal rating AMBEL (AMBEL (Ragweed, Common); rate 0.2500 kg/ha): 7.0 | Herbicidal rating CYPSE (CYPSE (Flatsedge); [12]): 0.0 | Herbicidal rating CYPSE (CYPSE (Flatsedge); [13]): 0.0 | Herbicidal rating CYPSE (CYPSE (Flatsedge); [14]): 0.0 | Herbicidal rating CYPSE (CYPSE (Flatsedge); [15]): 0.0 | Herbicidal rating ECHORC [6, 12]: 0.0 | Herbicidal rating ECHORC [6, 13]: 5.0 | Herbicidal rating ECHORC [6, 14]: 7.0 | Herbicidal rating ECHORC [6, 15]: 7.0 | GLXMAW herbicidal rating ([7]; rate 0.0158 kg/ha): 6.0 | GLXMAW herbicidal rating ([7]; rate 0.0315 kg/ha): 5.5 | GLXMAW herbicidal rating ([7]; rate 0.0630 kg/ha): 7.0
